# Source: patent publication US8690865B2, “Methods and devices for thermal treatment” (Georgia Tech Research Corporation, priority 2004, dated 2014)
# Like-named read-outs stand apart in the source and are kept apart here.
# Assays:
# [1] = skin permeability measurement in Franz diffusion cell after microheater microablation
# Procedure: Microheater components are tested for use in ablation of stratum corneum and increasing barrier permeability and increased drug transport by assessing transport across cadaver skin by three different molecules. Calcein is a low molecular weight (623 Da) fluorescent molecule used to measure skin permeability by spectrofluorimetric assay and image transport pathways in skin by confocal microscopy. […] Insulin is a polypeptide (6 kDa) that will be used for comparison with in vivo studies involving insulin delivery to diabetic rats. To perform skin permeability measurements, cadaver epidermis is placed in a Franz diffusion cell at 37° C. and an array of microheaters is then positioned on the stratum corneum side and thermally activated to cause microablation. […] Every hour, or more frequently, 1 ml of receptor solution is sampled, and replaced with fresh saline, and fluorescence intensity is measured using calibrated spectrofluorometry and analyzed to determine rates of transdermal delivery.
# [2] = in vivo transport into and across skin treated with thermal treatment device; parameters: species or system Sprague-Dawley hairless rat; settings: hairless rat skin treated with thermal treatment device; brief exposure to dye or over an hour to calcein solution
# Procedure: (§1) The in vivo skin model is a Sprague-Dawley hairless rat, a commonly used model for human skin permeability due to the similarity of hairless rat and human skin. For initial studies, rats ARE anesthetized by intraperitoneal injection of urethane (1000 mg/kg) and treated with a thermal treatment device of the present invention. The skin is exposed either briefly to a blue tissue marking dye to visualize the size and location of pores, or exposed for over an hour to a calcein solution to image the transdermal transport process. After sacrificing the animal, skin specimens are excised and prepared for histological examination by cryostat sectioning.
# [3] = insulin delivery through micropores in streptozotocin-diabetic rats; type: in vivo, rat; settings: treated skin area exposed to Humulin-R insulin solution
# Procedure: as §1
# For insulin delivery studies, rats are made diabetic by intravenous injection with 100 mg/kg streptozotocin, which produces diabetes the next day due to destruction of pancreatic islet cells. Under urethane anesthesia, skin is treated with a thermal treatment device of the present invention and the treated skin area is exposed to an Humulin-R insulin solution. Blood samples are collected by tail veil laceration over time to measure glucose concentration using a FreeStyle glucose monitor to determine pharmacodynamic response and to measure insulin concentration by radioimmunoassay to determine pharmacokinetic response, after which the animal is sacrificed.
Compound,transport across cadaver skin (measured in receptor solution) [1],transport into micropores and across the epidermis (histological tissue sections) [2],"transport across cadaver skin (measured in receptor solution) ([1]; cadaver epidermis, Franz diffusion cell at 37° C., after microablation by microheater array, added individually to donor compartment)",blood glucose (pharmacodynamic response) [3],"insulin concentration in blood (radioimmunoassay, pharmacokinetic response) [3]"
O=C(O)CN(CC(=O)O)Cc1cc2c(cc1O)Oc1cc(O)c(CN(CC(=O)O)CC(=O)O)cc1C21OC(=O)c2ccccc21 [Calcein],later measured in the receptor solution,"show transport of the molecules into the micropores and with time, transport across the epidermis",,,
Insulin,,,later measured in the receptor solution,response to glucose control,insulin in the blood
